Experimental data as given in ChEMBL document CHEMBL5046231, “Modulation of Naturally Occurring Linear Dipeptide Chirality to Reduce the Affinity for Oligopeptide Transporter 1 and Increase Intestinal Stability for an Enhanced Colon-Targeting Effect in the Treatment of Inflammatory Bowel Disease: An Application of trans-4-l-Hydroxyprolyl-l-serine” (J Med Chem, 2022).
Calls of active or inactive are those of the source. No cut-off for these calls is given here.

How the values were obtained:
[1] = AUC (0 to 6 hrs) in DSS-induced colitis C57BL/6 mouse model at 25 mg/kg, po measured up to 6 hrs by UPLC-MS/MS analysis; assay type: ADME, organism-based; design: route oral, dose 25 mg/kg, time <=6; conditions: in vivo
[2] = Metabolic stability in healthy C57BL/6 mouse colonic flora homogenate assessed as half life measured up to 12 hrs by HPLC analysis; assay type: ADME
[3] = Stability in simulated intestinal fluid at pH 6.8 assessed as half life measured up to 12 hrs by HPLC analysis; assay type: ADME
[4] = Cmax in DSS-induced colitis C57BL/6 mouse model at 25 mg/kg, po measured up to 6 hrs by UPLC-MS/MS analysis; assay type: ADME, organism-based; design: route oral, dose 25 mg/kg, time <=6; conditions: in vivo
[5] = Metabolic stability in healthy C57BL/6 mouse liver assessed as half life measured up to 12 hrs by HPLC analysis; assay type: ADME, tissue-based
[6] = target: T1, Solute carrier family 15 member 1 (Homo sapiens, UniProt P46059); assay: Substrate activity at PEPT1 in human Caco-2 cells assessed as inhibition of Gly-Sar substrate uptake by UPLC-MS/MS analysis; assay type: cell-based; conditions: for inhibition (INH): human, caco-2
T1 sequence (P46059 whole entry): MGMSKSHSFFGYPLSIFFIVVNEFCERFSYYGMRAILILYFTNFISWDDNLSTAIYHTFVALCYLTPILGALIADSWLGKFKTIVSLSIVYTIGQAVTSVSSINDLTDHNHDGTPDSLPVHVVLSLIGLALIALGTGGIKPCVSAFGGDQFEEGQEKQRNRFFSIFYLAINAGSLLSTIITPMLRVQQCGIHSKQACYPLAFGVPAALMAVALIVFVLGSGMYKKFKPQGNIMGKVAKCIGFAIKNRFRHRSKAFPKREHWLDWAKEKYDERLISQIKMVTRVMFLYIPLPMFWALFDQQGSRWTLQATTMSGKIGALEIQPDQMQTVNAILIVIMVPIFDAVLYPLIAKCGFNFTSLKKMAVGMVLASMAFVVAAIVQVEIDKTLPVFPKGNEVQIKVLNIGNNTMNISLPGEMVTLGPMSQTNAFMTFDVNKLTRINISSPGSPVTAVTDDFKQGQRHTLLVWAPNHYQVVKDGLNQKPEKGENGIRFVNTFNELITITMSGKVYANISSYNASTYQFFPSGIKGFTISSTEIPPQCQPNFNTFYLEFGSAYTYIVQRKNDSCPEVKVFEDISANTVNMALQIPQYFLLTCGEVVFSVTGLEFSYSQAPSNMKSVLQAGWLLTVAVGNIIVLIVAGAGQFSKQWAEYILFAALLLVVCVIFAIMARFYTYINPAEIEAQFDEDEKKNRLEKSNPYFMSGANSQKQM

Mus musculus [7] = assay: Anti-colitis activity against DSS-induced colitis in C57BL/6 mouse model assessed as increase in colon length at 25 mg/kg, po administered via gavage twice daily for 10 days; assay type: functional, organism-based; conditions: time 10.0 day
Mus musculus [8] = assay: Anti-colitis activity against DSS-induced colitis in C57BL/6 mouse model assessed as assessed as recovery of body weight at 25 mg/kg, po administered via gavage twice daily for 10 days; assay type: functional, organism-based; conditions: time 10.0 day
[9] = Tmax in DSS-induced colitis C57BL/6 mouse model at 25 mg/kg, po measured up to 6 hrs by UPLC-MS/MS analysis; assay type: ADME, organism-based; conditions: in vivo
[10] = Chemical stability in phosphate buffer at pH 7.2 assessed as half life measured up to 12 hrs by HPLC analysis; assay type: physicochemical
[11] = Chemical stability in acetate buffer at pH 4.5 assessed as half life measured up to 12 hrs by HPLC analysis; assay type: physicochemical
[12] = Metabolic stability in DSS-induced C57BL/6 inflammatory mouse model colonic flora homogenate assessed as half life measured up to 12 hrs by HPLC analysis; assay type: ADME; conditions: C57BL/6, mouse
[13] = Chemical stability in phosphate buffer at pH 6.8 assessed as half life measured up to 12 hrs by HPLC analysis; assay type: physicochemical
[14] = Metabolic stability in healthy C57BL/6 mouse colon assessed as half life measured up to 12 hrs by HPLC analysis; assay type: ADME, tissue-based
[15] = Metabolic stability in healthy C57BL/6 mouse plasma assessed as half life measured up to 12 hrs by HPLC analysis; assay type: ADME, cell-free
[16] = Metabolic stability in healthy C57BL/6 mouse jejunum assessed as half life measured up to 12 hrs by HPLC analysis; assay type: ADME, tissue-based
[17] = Stability in human Caco-2 cells homogenate assessed as half life measured up to 12 hrs by HPLC analysis; assay type: ADME, cell-based; conditions: Caco-2 cell homogenate
[18] = Metabolic stability in DSS-induced C57BL/6 mouse colon assessed as half life measured up to 12 hrs by HPLC analysis; assay type: ADME, tissue-based
[19] = Metabolic stability in DSS-induced C57BL/6 mouse jejunum assessed as half life measured up to 12 hrs by HPLC analysis; assay type: ADME, tissue-based
[20] = Chemical stability in 0.1 M HCl at pH 1.2 assessed as half life measured up to 12 hrs by HPLC analysis; assay type: physicochemical
Mus musculus [21] = assay: Anti-colitis activity against DSS-induced colitis in C57BL/6 mouse model assessed as fold decrease in disease activity index at 25 mg/kg, po administered via gavage twice daily for 10 days relative to control; assay type: functional; conditions: time 10 day
[22] = target: T1, Solute carrier family 15 member 1; assay: Substrate activity at PEPT1 in human Caco-2 cells assessed as fold increase in drug uptake by UPLC-MS/MS analysis relative to its enantiomers; assay type: ADME, cell-based
[23] = Stability in simulated gastric fluid at pH 1.2 assessed as half life measured up to 12 hrs by HPLC analysis; assay type: ADME
[24] = target: T1, Solute carrier family 15 member 1; assay: Substrate activity at PEPT1 in human Caco-2 cells assessed as fold reduction in drug uptake in presence of Gly-Sar by UPLC-MS/MS analysis relative to its enantiomers; assay type: ADME, cell-based
[25] = target: T2, Solute carrier family 15 member 1 (Rattus norvegicus, UniProt P51574); assay: Substrate activity in PEPT1 in Sprague-Dawley rat jejunum assessed as fold increase in effective permeability at 5 mM measured up to 60 mins in presence of Gly-Sar by HPLC analysis relative to its enantiomers; assay type: ADME, tissue-based; conditions: 1 h, 5000 µM
T2 sequence (P51574 whole entry): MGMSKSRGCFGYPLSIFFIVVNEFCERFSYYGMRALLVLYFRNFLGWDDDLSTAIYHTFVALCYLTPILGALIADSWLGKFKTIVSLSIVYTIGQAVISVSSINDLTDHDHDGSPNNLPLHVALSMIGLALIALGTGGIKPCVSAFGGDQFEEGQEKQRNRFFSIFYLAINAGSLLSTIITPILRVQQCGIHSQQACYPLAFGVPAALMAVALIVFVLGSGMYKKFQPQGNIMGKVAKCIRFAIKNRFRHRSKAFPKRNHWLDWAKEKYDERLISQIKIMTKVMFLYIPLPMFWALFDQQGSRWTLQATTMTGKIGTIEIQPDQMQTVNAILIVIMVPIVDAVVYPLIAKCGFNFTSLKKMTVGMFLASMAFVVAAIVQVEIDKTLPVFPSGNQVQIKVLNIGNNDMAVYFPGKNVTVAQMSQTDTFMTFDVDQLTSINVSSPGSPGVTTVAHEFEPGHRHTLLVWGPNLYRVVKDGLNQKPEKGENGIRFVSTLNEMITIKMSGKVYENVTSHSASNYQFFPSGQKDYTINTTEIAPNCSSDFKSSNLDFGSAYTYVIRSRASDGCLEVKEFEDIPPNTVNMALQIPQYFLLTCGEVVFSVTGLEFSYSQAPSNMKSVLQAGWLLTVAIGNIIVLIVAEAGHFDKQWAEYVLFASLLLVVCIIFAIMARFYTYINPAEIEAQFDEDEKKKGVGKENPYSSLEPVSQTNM

[26] = Apparent permeability across apical to basolateral side in human Caco-2 cells assessed as fold increase in permeability at 0.5 mM measured up to 60 mins by UPLC-MS/MS analysis relative to its enantiomers; assay type: ADME, cell-based; conditions: caco-2, 1 h, 500 µM
Jejunum = assay: Effective permeability in Sprague-Dawley rat jejunum assessed as fold increase in permeability at 5 mM measured up to 60 mins by HPLC analysis relative to its enantiomers; assay type: ADME, tissue-based; conditions: 1 h, 5000 µM

Structure (SMILES) | AUC [1] | half-life [2] | half-life [3] | Cmax [4] | half-life [5] | Tmax [9] | half-life [10] | half-life [11] | half-life [12] | half-life [13] | half-life [14] | half-life [15] | half-life [16] | half-life [17] | half-life [18] | half-life [19] | half-life [20] | half-life [23] | Activity (Mus musculus [7]) | Activity (Mus musculus [8]) | other results
O=C(O)[C@@H](CO)NC(=O)[C@H]1C[C@H](O)CN1 | 50.73 microM/L.hr | > 12 h | > 12 h | 22.9 µM | > 12 h | 4 h | > 12 h | > 12 h | > 12 h | > 12 h | > 12 h | > 12 h | > 12 h | > 12 h | > 12 h | > 12 h | > 12 h | > 12 h | Active | Active | inhibition (INH) [6]: Not Active; fold change (FC) (Mus musculus [21]): 1.5; fold change (FC) [22]: 3.3
O=C(O)[C@H](CO)NC(=O)[C@H]1C[C@H](O)CN1 | 8.55 microM/L.hr | > 12 h | > 12 h | 4.01 µM | > 12 h | 2 h | > 12 h | > 12 h | > 12 h | > 12 h | > 12 h | > 12 h | > 12 h | > 12 h | > 12 h | > 12 h | > 12 h | > 12 h | inactive | inactive | fold change (FC) [24]: 3.4; IC50 [6]: 9.6 mM; fold change (FC) [25]: 6.2; fold change (FC) [26]: 6.3; fold change (FC) (Jejunum): 7.3; fold change (FC) [22]: 3.3
O=C(O)[C@H](CO)NC(=O)[C@@H]1C[C@H](O)CN1 | 1.62 microM/L.hr | 1.22 h | > 12 h | 1.05 µM | 0.51 h | 2 h | > 12 h | > 12 h | 1.15 h | > 12 h | > 12 h | > 12 h | 0.39 h | > 12 h | > 12 h | 0.35 h | > 12 h | > 12 h | inactive | inactive | fold change (FC) [24]: 3.4; IC50 [6]: 9.8 mM; fold change (FC) [25]: 4; fold change (FC) [26]: 6.3; fold change (FC) (Jejunum): 7.3; fold change (FC) [22]: 3.3
O=C(O)[C@H](CO)NC(=O)[C@@H]1C[C@@H](O)CN1 | 1.34 microM/L.hr | 0.86 h | > 12 h | 0.52 µM | 0.27 h | 2 h | > 12 h | > 12 h | 0.88 h | > 12 h | > 12 h | > 12 h | 0.35 h | > 12 h | > 12 h | 0.29 h | > 12 h | > 12 h | Active | Active | fold change (FC) [24]: 3.4; IC50 [6]: 5.18 mM; fold change (FC) [25]: 7.8; fold change (FC) [26]: 6.3; fold change (FC) (Jejunum): 7.3; fold change (FC) (Mus musculus [21]): 1.5; fold change (FC) [22]: 3.3
O=C(O)[C@H](CO)NC(=O)[C@H]1C[C@@H](O)CN1 | 44.55 microM/L.hr | > 12 h | > 12 h | 22.7 µM | > 12 h | 4 h | > 12 h | > 12 h | > 12 h | > 12 h | > 12 h | > 12 h | > 12 h | > 12 h | > 12 h | > 12 h | > 12 h | > 12 h | inactive | inactive | inhibition (INH) [6]: Not Active

Further lines, with some results ahead:

AUC [1] | half-life [2] | half-life [3] | Cmax [4] | half-life [5] | Tmax [9] | half-life [10] | half-life [11] | half-life [12] | half-life [13] | half-life [14] | half-life [15] | half-life [16] | half-life [17] | half-life [18] | half-life [19] | half-life [20] | half-life [23] | Structure (SMILES) | Activity (Mus musculus [7]) | Activity (Mus musculus [8]) | other results
1.67 microM/L.hr | 0.91 h | > 12 h | 0.64 µM | 0.32 h | 2 h | > 12 h | > 12 h | 0.99 h | > 12 h | > 12 h | > 12 h | 0.33 h | > 12 h | > 12 h | 0.39 h | > 12 h | > 12 h | O=C(N[C@H](CO)C(=O)O)[C@@H]1C[C@@H](O)CN1 | Active | Active | fold change (FC) [24]: 3.4; IC50 [6]: 10.2 mM; fold change (FC) [25]: 4.6; fold change (FC) [26]: 6.3; fold change (FC) (Jejunum): 7.3; fold change (FC) (Mus musculus [21]): 1.5; fold change (FC) [22]: 3.3
49.92 microM/L.hr | > 12 h | > 12 h | 22.1 µM | > 12 h | 4 h | > 12 h | > 12 h | > 12 h | > 12 h | > 12 h | > 12 h | > 12 h | > 12 h | > 12 h | > 12 h | > 12 h | > 12 h | O=C(N[C@H](CO)C(=O)O)[C@@H]1C[C@H](O)CN1 | inactive | inactive | inhibition (INH) [6]: Not Active
